Test results as given in patent US20220411471A1, “CELL-PERMEABLE CYCLIC PEPTIDES AND USES THEREOF” (Unnatural Products Inc., priority 2019, published 2022).
Non-standard residues stand in square brackets, D forms with d. Residues, ends and D or L forms follow the SMILES beside them. Trp(6-Cl) = N[C@@H](Cc1c[nH]c2cc(Cl)ccc12)C(=O)O; Phe(4-Cl) = N[C@@H](Cc1ccc(Cl)cc1)C(=O)O; Phe(4-F) = N[C@@H](Cc1ccc(F)cc1)C(=O)O; 2Thi = N[C@@H](Cc1cccs1)C(=O)O; NMeL = CN[C@@H](CC(C)C)C(=O)O; NMeNle = CCCC[C@H](NC)C(=O)O; Tle = CC(C)(C)[C@H](N)C(=O)O; dPip = O=C(O)[C@H]1CCCCN1; NMeA = CN[C@@H](C)C(=O)O

Target: T1, Human MDM2 (HDM2) 1-116 (Homo sapiens, UniProt Q00987)
T1 construct: Human MDM2 (HDM2) 1-116
Assay: Fluorescence polarization assay, MDM2/p53 (Table 3)
Format: binding
Protocol: (§1) Human MDM2 (HDM2) 1-116 (20 μL) and FITC-labeled p53 (18-26), 50 nM and 10 nM respectively in 10 mM Tris, 50 mM NaCl, 0.01% Tween20, and 1 mM DTT at pH 7.4 were dispensed into an opaque, black, 384 well plate. Compounds dissolved in DMSO were pin transferred (˜200 nL) to the 384 well plate containing the MDM2/p53 solution. After incubation for 10 minutes, the fluorescence polarization was read on a Molecular Devices SpectraMax plate reader equipped with a Fluorescein FP cartridge. In addition to probe alone (positive control) and probe/MDM2 (negative control), a titration of linear p53(18-26) was included on every plate as an additional control. IC50 values were fit using either Prism or Collaborative Drug Discovery.
as §1, with “and FAM-labeled RFMDYWEGL-NH2,” for “and FITC-labeled p53 (18-26),”, “NaCl, 0.010%” for “NaCl, 0.01%”, “transferred (˜100-200” for “transferred (˜200”, “for 60” for “for 10”

T1 sequence (Q00987 1-116): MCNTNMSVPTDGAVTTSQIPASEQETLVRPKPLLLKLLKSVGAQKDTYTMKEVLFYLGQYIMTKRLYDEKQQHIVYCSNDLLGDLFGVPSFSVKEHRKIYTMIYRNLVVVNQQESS

SMILES: CC(C)C[C@@H]1NC(=O)[C@H](Cc2c[nH]c3cc(Cl)ccc23)NC(=O)[C@H](CCC(=O)O)NC(=O)[C@H](Cc2ccccc2)NC(=O)[C@@H]2CCCN2C(=O)[C@H]2CCCN2C(=O)[C@H](Cc2ccccc2)NC(=O)[C@H](CCC(=O)O)NC(=O)[C@H](Cc2c[nH]c3ccccc23)NC(=O)[C@H](CC(=O)O)NC1=O [Compound 1, [H]OC(=O)CC[C@@H]1NC(=O)[C@H](Cc2cn([H])c3ccccc23)NC(=O)[C@H](CC(=O)O[H])NC(=O)[C@H](CC(C)C)NC(=O)[C@H](Cc2c[nH]c3cc(Cl)ccc23)NC(=O)[C@H](CCC(=O)O[H])NC(=O)[C@H](Cc2ccccc2)NC(=O)[C@@H]2CCCN2C(=O)[C@H]2CCCN2C(=O)[C@H](Cc2ccccc2)NC1=O] (cyclo(FE[Trp(6-Cl)]LDWEF[dP]P))
- IC50: < 1000 nM

SMILES: CC(C)C[C@@H]1NC(=O)[C@H](Cc2c[nH]c3ccccc23)NC(=O)[C@H](CCC(=O)O)NC(=O)[C@H](Cc2ccccc2)NC(=O)[C@@H]2CCCN2C(=O)[C@H]2CCCN2C(=O)[C@H](Cc2ccccc2)NC(=O)[C@H](CCC(=O)O)NC(=O)[C@H](Cc2c[nH]c3ccccc23)NC(=O)[C@H](CC(=O)O)NC1=O [Compound 2, [H]OC(=O)CC[C@@H]1NC(=O)[C@H](Cc2cn([H])c3ccccc23)NC(=O)[C@H](CC(=O)O[H])NC(=O)[C@H](CC(C)C)NC(=O)[C@H](Cc2cn([H])c3ccccc23)NC(=O)[C@H](CCC(=O)O[H])NC(=O)[C@H](Cc2ccccc2)NC(=O)[C@@H]2CCCN2C(=O)[C@H]2CCCN2C(=O)[C@H](Cc2ccccc2)NC1=O] (cyclo(FEWLDWEF[dP]P))
- IC50: 1000 to 2500 nM

SMILES: CC(C)C[C@H]1C(=O)N[C@@H](CC(=O)O)C(=O)N[C@@H](Cc2c[nH]c3ccccc23)C(=O)N[C@@H](CCC(=O)O)C(=O)N[C@@H](Cc2ccccc2)C(=O)N2CCC[C@@H]2C(=O)N2CCC[C@H]2C(=O)N[C@@H](Cc2ccccc2)C(=O)N[C@@H](CCC(=O)O)C(=O)N[C@@H](Cc2c[nH]c3ccccc23)C(=O)N1C [Compound 3, [H]OC(=O)CC[C@@H]1NC(=O)[C@H](Cc2ccccc2)NC(=O)[C@@H]2CCCN2C(=O)[C@H]2CCCN2C(=O)[C@H](Cc2ccccc2)NC(=O)[C@H](CCC(=O)O[H])NC(=O)[C@H](Cc2cn([H])c3ccccc23)NC(=O)[C@H](CC(=O)O[H])NC(=O)[C@H](CC(C)C)N(C)C(=O)[C@H](Cc2cn([H])c3ccccc23)NC1=O] (cyclo(FEW[NMeL]DWEF[dP]P))
- IC50: < 1000 nM

SMILES: CC(C)C[C@H]1C(=O)N[C@@H](CC(=O)O)C(=O)N[C@@H](Cc2ccc(F)cc2)C(=O)N[C@@H](CCC(=O)O)C(=O)N[C@@H](Cc2ccc(Cl)cc2)C(=O)N2CCC[C@@H]2C(=O)N2CCC[C@H]2C(=O)N[C@@H](Cc2ccccc2)C(=O)N[C@@H](CCC(=O)O)C(=O)N[C@@H](Cc2c[nH]c3ccccc23)C(=O)N1C [Compound 4, [H]OC(=O)CC[C@@H]1NC(=O)[C@H](Cc2ccccc2)NC(=O)[C@@H]2CCCN2C(=O)[C@H]2CCCN2C(=O)[C@H](Cc2ccc(Cl)cc2)NC(=O)[C@H](CCC(=O)O[H])NC(=O)[C@H](Cc2ccc(F)cc2)NC(=O)[C@H](CC(=O)O[H])NC(=O)[C@H](CC(C)C)N(C)C(=O)[C@H](Cc2cn([H])c3ccccc23)NC1=O] (cyclo(FEW[NMeL]D[Phe(4-F)]E[Phe(4-Cl)][dP]P))
- IC50: < 1000 nM

SMILES: CC(C)C[C@H]1C(=O)N[C@@H](CC(=O)O)C(=O)N[C@@H](Cc2ccc(F)cc2)C(=O)N[C@@H](CCC(=O)O)C(=O)N[C@@H](Cc2ccccc2)C(=O)N2CCC[C@@H]2C(=O)N2CCC[C@H]2C(=O)N[C@@H](Cc2cccs2)C(=O)N[C@@H](CCC(=O)O)C(=O)N[C@@H](Cc2c[nH]c3ccccc23)C(=O)N1C [Compound 5, [H]OC(=O)CC[C@@H]1NC(=O)[C@H](Cc2cccs2)NC(=O)[C@@H]2CCCN2C(=O)[C@H]2CCCN2C(=O)[C@H](Cc2ccccc2)NC(=O)[C@H](CCC(=O)O[H])NC(=O)[C@H](Cc2ccc(F)cc2)NC(=O)[C@H](CC(=O)O[H])NC(=O)[C@H](CC(C)C)N(C)C(=O)[C@H](Cc2cn([H])c3ccccc23)NC1=O] (cyclo([2Thi]EW[NMeL]D[Phe(4-F)]EF[dP]P))
- IC50: < 1000 nM

SMILES: CC(C)C[C@H]1C(=O)N[C@@H](CC(=O)O)C(=O)N[C@@H](Cc2c[nH]c3ccccc23)C(=O)N[C@@H](CCC(=O)O)C(=O)N[C@@H](Cc2ccccc2)C(=O)N2CCC[C@@H]2C(=O)N2CCC[C@H]2C(=O)N[C@@H](Cc2ccc(F)cc2)C(=O)N[C@@H](CCC(=O)O)C(=O)N[C@@H](Cc2ccc(Cl)cc2)C(=O)N1C [Compound 6, [H]OC(=O)CC[C@@H]1NC(=O)[C@H](Cc2cn([H])c3ccccc23)NC(=O)[C@H](CC(=O)O[H])NC(=O)[C@H](CC(C)C)N(C)C(=O)[C@H](Cc2ccc(Cl)cc2)NC(=O)[C@H](CCC(=O)O[H])NC(=O)[C@H](Cc2ccc(F)cc2)NC(=O)[C@@H]2CCCN2C(=O)[C@H]2CCCN2C(=O)[C@H](Cc2ccccc2)NC1=O] (cyclo([Phe(4-F)]E[Phe(4-Cl)][NMeL]DWEF[dP]P))
- IC50: < 1000 nM

SMILES: CCCC[C@H]1C(=O)N[C@@H](Cc2ccccc2)C(=O)N2CCC[C@@H]2C(=O)N2CCC[C@H]2C(=O)N[C@@H](Cc2ccccc2)C(=O)N(C)[C@@H](CCCC)C(=O)N[C@@H](Cc2c[nH]c3ccccc23)C(=O)N(C)[C@@H](CC(C)C)C(=O)N[C@@H](CC(=O)O)C(=O)N[C@@H](Cc2c[nH]c3ccccc23)C(=O)N1C [Compound 7, [H]OC(=O)C[C@@H]1NC(=O)[C@H](CC(C)C)N(C)C(=O)[C@H](Cc2cn([H])c3ccccc23)NC(=O)[C@H](CCCC)N(C)C(=O)[C@H](Cc2ccccc2)NC(=O)[C@@H]2CCCN2C(=O)[C@H]2CCCN2C(=O)[C@H](Cc2ccccc2)NC(=O)[C@H](CCCC)N(C)C(=O)[C@H](Cc2cn([H])c3ccccc23)NC1=O] (cyclo(F[NMeNle]W[NMeL]DW[NMeNle]F[dP]P))
- IC50: ≥ 5000 nM

SMILES: C[C@H]1C(=O)N[C@@H](Cc2ccc(Cl)cc2)C(=O)N2CCCC[C@@H]2C(=O)N2CCC[C@H]2C(=O)N[C@@H](Cc2ccccc2)C(=O)N[C@@H](CCC(=O)O)C(=O)N[C@@H](Cc2ccc(O)cc2)C(=O)N2CCC[C@@H]2C(=O)N(C)[C@@H](C)C(=O)N[C@@H](Cc2ccc(F)cc2)C(=O)N1C [Compound 8, [H]OC(=O)CC[C@@H]1NC(=O)[C@H](Cc2ccccc2)NC(=O)[C@@H]2CCCN2C(=O)[C@H]2CCCCN2C(=O)[C@H](Cc2ccc(Cl)cc2)NC(=O)[C@H](C)N(C)C(=O)[C@H](Cc2ccc(F)cc2)NC(=O)[C@H](C)N(C)C(=O)[C@H]2CCCN2C(=O)[C@H](Cc2ccc(O[H])cc2)NC1=O] (cyclo(EY[dP][NMeA][Phe(4-F)][NMeA][Phe(4-Cl)][dPip]PF))
- IC50: 2500 to 5000 nM

SMILES: C[C@H]1C(=O)N[C@@H](Cc2ccc(F)cc2)C(=O)N[C@@H](CCC(=O)O)C(=O)N[C@@H](Cc2ccccc2)C(=O)N2CCCC[C@@H]2C(=O)N2CCC[C@H]2C(=O)N[C@@H](Cc2ccccc2)C(=O)N[C@@H](CCC(=O)O)C(=O)N[C@@H](Cc2c[nH]c3ccccc23)C(=O)N2CCC[C@@H]2C(=O)N1C [Compound 9, [H]OC(=O)CC[C@@H]1NC(=O)[C@H](Cc2ccccc2)NC(=O)[C@@H]2CCCN2C(=O)[C@H]2CCCCN2C(=O)[C@H](Cc2ccccc2)NC(=O)[C@H](CCC(=O)O[H])NC(=O)[C@H](Cc2ccc(F)cc2)NC(=O)[C@H](C)N(C)C(=O)[C@H]2CCCN2C(=O)[C@H](Cc2cn([H])c3ccccc23)NC1=O] (cyclo(EF[dPip]PFEW[dP][NMeA][Phe(4-F)]))
- IC50: < 1000 nM

SMILES: C[C@H]1C(=O)N[C@@H](Cc2ccc(Cl)cc2)C(=O)N2CCCC[C@@H]2C(=O)N2CCC[C@H]2C(=O)N[C@@H](Cc2ccccc2)C(=O)N[C@@H](C(C)(C)C)C(=O)N[C@@H](Cc2ccc(O)cc2)C(=O)N2CCC[C@@H]2C(=O)N(C)[C@@H](C)C(=O)N[C@@H](Cc2ccc(F)cc2)C(=O)N1C [Compound 10, [H]Oc1ccc(C[C@@H]2NC(=O)[C@@H](NC(=O)[C@H](Cc3ccccc3)NC(=O)[C@@H]3CCCN3C(=O)[C@H]3CCCCN3C(=O)[C@H](Cc3ccc(Cl)cc3)NC(=O)[C@H](C)N(C)C(=O)[C@H](Cc3ccc(F)cc3)NC(=O)[C@H](C)N(C)C(=O)[C@H]3CCCN3C2=O)C(C)(C)C)cc1] (cyclo(F[Tle]Y[dP][NMeA][Phe(4-F)][NMeA][Phe(4-Cl)][dPip]P))
- IC50: 1000 to 2500 nM

SMILES: C[C@H]1C(=O)N[C@@H](Cc2ccc(Cl)cc2)C(=O)N2CCCC[C@@H]2C(=O)N2CCC[C@H]2C(=O)N[C@@H](Cc2ccccc2)C(=O)N[C@@H](C(C)(C)C)C(=O)N[C@@H](Cc2ccc(O)cc2)C(=O)N2CCC[C@@H]2C(=O)N(C)[C@@H](C)C(=O)N[C@@H](Cc2ccc(F)cc2)C(=O)N1C [Compound 11, [H]Oc1ccc(C[C@@H]2NC(=O)[C@@H](NC(=O)[C@H](Cc3ccccc3)NC(=O)[C@@H]3CCCN3C(=O)[C@H]3CCCCN3C(=O)[C@H](Cc3ccc(Cl)cc3)NC(=O)[C@H](C)N(C)C(=O)[C@H](Cc3ccc(F)cc3)NC(=O)[C@H](C)N(C)C(=O)[C@H]3CCCN3C2=O)C(C)(C)C)cc1] (cyclo(F[Tle]Y[dP][NMeA][Phe(4-F)][NMeA][Phe(4-Cl)][dPip]P))
- IC50: ≥ 5000 nM
